“Also recorded” adds a separate entry of the source. Like-named read-outs stand apart in the source and are kept apart here. Ends that are not written are not given here.
What was measured:
[1] = system: Ca^2+-induced relaxation of mesenteric resistance arteries; test: Inhibition of Ca2+-induced relaxation of mesenteric resistance arteries by antagonists or denervation; parameters: species or system rat; details: for Result (antagonist effect on Ca2+-induced relaxation): Table 3
[2] = system: CaR; details: cited from earlier work
[3] = system: norepinephrine precontracted mesenteric resistance arteries (perivascular CaR); test: Vasorelaxation of norepinephrine precontracted mesenteric resistance arteries; parameters: species or system rat
From the text: Branch I and II mesenteric resistance arteries, internal diameter […], are isolated from the mesenteric arcade of male Wistar rats and placed in ice cold physiologic salt solution (PSS) of the following composition in mM: NaCl, 130-140; KCl, 4.7; MgSO4.7H2 O, 1.17; NaHCO3, 5-15; KH2 PO4, 1.15 and Na2 HPO4, 1.10, CaCl2, 1.0; HEPES, 50; and glucose, 5, with a pH of 7.4 when gassed with 95% air, 5% CO2.
After cleaning of fat and connective tissue, the arterial segments are denuded of endothelium by rubbing a human hair in and out of the lumen. The vessel segments are then mounted between a force transducer and translation stage of a wire myograph using tungsten wire and the PSS is warmed to 37° C. and gassed with 95% air, 5% CO2 to provide a pH of 7.4. The vessel segments are then stretched to a length which is equivalent to an internal diameter of […] and allowed to equilibrate for 30 minutes. The vessels are then exposed to […] norepinephrine for three 5 minute periods to induce reproducible contractile responses. […] The vessel is then washed and allow to relax to baseline.
To determine whether the test compound is a vasodilator, the vessel is again precontracted by the addition of […] norepinephrine, and after the force response reaches a steady state, the test compound is cumulatively added and the effect on force generation is determined. […] Ca^2+ receptor agonists that are found to be endothelium-independent vasodilators and whose dilator activity is blocked by quinacrine and sensory denervation are moved onto the tertiary in vivo blood pressure screen.
Mesenteric resistance arteries were precontracted with either 100 mM K^+ (in the presence of 1 μM phentolamine) or 5 μM norepinephrine and response to cumulative addition of NPS R831 (10 nM to 50 μM) determined.

[4] = system: mean arterial pressure; test: Mean arterial pressure of conscious SHR and WKY rats after bolus administration; format: in vivo, rat (SHR and WKY)
From the text: FIG. 12. Effect of bolus administration of 3 μmol/kg NPS R467 on mean arterial pressure (carotid artery catheter) of conscious SHR rats.
FIG. 13. Effect of bolus administration of 1 μmol/kg NPS R831 on mean arterial pressure (carotid artery catheter) of conscious SHR and WKY.
The initial studies assessed the effect of bolus administration of NPS R467 on mean arterial pressure of conscious rats of both strains.
As noted, one result of the studies in Example 1 was the identification of NPS R831 as a candidate compound for assessment of blood pressure lowering effects. A study was performed in which the effect of a bolus injection of NPS R831 on blood pressure of a single SHR and a single WKY rat were measured.

[5] = system: voltage sensitive Ca^2+ channel; details: "in view of statements"; cited from earlier work
[6] = target: T1, Ca^2+ channels (Rattus norvegicus, UniProt P22002); test: Relaxation of mesenteric arteries precontracted with 100 mM K+ (Ca2+ channel blocking activity)
T1 construct: voltage sensitive Ca^2+ channels present on smooth muscle; from tissue; host or cells: isolated mesenteric resistance arteries (rat)
T1 sequence (P22002 whole entry): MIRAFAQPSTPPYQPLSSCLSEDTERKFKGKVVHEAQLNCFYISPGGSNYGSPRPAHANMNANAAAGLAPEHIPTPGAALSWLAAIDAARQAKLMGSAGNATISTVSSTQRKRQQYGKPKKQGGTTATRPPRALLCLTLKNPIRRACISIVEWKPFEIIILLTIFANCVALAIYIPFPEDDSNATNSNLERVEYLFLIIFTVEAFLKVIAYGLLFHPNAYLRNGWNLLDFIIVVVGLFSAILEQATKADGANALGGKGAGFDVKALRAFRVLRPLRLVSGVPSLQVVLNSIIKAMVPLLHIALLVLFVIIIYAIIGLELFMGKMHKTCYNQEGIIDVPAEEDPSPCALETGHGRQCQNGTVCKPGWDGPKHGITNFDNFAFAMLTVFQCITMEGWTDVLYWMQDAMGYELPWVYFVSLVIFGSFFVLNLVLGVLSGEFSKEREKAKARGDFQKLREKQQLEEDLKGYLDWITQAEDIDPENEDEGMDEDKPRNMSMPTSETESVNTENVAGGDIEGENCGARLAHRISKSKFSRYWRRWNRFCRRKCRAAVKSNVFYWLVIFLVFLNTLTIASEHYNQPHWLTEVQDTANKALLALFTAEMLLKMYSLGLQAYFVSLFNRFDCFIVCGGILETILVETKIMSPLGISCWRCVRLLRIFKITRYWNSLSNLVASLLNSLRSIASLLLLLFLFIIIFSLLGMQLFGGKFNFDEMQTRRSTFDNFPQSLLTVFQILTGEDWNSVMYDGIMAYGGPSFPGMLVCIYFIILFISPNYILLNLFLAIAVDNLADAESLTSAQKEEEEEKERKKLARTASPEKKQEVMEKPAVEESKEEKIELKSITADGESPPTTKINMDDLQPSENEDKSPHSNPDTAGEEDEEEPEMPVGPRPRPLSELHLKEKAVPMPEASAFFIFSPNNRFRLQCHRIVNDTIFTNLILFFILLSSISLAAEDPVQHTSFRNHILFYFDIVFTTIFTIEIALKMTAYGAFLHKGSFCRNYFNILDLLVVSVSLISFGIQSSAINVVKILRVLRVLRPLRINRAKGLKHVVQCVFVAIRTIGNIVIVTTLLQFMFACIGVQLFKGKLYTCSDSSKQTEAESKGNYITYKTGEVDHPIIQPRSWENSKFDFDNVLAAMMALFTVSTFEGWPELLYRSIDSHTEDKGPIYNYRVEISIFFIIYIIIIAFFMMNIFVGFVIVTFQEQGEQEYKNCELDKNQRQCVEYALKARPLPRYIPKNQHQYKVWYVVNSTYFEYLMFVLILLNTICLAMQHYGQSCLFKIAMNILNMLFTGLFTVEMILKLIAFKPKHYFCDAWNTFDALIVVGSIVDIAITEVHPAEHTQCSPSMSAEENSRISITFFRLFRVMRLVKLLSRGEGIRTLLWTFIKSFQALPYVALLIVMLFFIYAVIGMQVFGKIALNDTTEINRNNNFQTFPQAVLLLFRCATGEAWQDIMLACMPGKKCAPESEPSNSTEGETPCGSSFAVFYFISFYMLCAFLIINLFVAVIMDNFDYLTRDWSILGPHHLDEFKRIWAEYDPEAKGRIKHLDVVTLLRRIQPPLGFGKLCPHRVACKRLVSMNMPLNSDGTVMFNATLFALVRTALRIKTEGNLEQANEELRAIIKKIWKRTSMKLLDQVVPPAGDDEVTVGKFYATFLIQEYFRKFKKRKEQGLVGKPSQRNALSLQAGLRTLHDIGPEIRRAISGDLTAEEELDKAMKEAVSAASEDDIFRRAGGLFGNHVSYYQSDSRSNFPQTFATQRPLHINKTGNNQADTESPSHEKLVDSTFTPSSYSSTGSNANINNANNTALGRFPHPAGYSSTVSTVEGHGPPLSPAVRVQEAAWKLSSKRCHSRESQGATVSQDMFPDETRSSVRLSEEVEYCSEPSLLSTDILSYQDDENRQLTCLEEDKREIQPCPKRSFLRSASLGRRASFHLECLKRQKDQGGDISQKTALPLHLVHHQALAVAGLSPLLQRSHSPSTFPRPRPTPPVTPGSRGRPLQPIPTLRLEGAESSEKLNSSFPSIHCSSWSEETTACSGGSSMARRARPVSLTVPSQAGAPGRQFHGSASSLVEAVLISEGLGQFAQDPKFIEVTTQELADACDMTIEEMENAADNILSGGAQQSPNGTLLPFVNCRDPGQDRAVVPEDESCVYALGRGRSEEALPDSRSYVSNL
T1 sequence (P54290 25-944 partner limits assumed): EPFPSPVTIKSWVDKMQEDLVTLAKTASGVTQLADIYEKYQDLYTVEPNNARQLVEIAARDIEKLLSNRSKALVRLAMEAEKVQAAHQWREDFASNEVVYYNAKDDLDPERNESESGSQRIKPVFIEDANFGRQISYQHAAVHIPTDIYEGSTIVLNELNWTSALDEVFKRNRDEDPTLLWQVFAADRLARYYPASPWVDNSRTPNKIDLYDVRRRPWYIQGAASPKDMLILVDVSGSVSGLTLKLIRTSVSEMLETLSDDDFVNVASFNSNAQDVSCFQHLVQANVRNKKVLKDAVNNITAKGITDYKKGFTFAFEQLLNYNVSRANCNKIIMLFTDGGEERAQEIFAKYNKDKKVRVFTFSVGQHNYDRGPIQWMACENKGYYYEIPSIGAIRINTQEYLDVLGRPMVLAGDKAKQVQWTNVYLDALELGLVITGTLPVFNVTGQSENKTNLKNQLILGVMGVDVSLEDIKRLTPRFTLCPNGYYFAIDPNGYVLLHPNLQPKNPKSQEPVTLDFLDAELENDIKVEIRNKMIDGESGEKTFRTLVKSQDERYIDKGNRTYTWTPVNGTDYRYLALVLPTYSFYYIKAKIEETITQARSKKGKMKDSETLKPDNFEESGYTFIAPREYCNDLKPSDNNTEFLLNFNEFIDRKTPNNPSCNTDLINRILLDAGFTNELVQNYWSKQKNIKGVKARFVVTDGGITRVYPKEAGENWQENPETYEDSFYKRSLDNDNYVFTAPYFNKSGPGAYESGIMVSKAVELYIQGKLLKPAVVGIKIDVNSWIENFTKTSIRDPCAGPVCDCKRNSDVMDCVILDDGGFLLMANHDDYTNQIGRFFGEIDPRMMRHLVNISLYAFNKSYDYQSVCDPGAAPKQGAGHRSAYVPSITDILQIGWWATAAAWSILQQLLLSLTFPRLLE
T1 sequence (P54290 945-1091 partner limits assumed): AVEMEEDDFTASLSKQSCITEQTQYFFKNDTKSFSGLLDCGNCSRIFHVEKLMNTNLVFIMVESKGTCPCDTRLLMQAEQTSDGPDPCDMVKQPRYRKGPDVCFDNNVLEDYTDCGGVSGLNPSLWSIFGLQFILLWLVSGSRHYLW
From the text: Prior studies have shown that the parathyroid CaR agonists of the NPS R467 class block voltage sensitive Ca^2+ channel at mid-micromolar concentrations. […] The rationale was based on the facts that (a) K^+ -induced contraction is the result of influx of Ca^2+ into the cell through voltage gated Ca^2+ channels, and (b) Ca^2+ -induced relaxation is not observed during K^+ depolarization. Thus, CaR agonist mediated relaxation observed during K^+ induced contraction would reflect Ca^2+ channel blocking activity while […] relaxation observed during norepinephrine-induced contraction (which results from both Ca^2+ release and Ca^2+ entry) would be a mixture of Ca^2+ receptor stimulated relaxation and Ca^2+ channel activity.
Mesenteric resistance arteries were precontracted with either 100 mM K^+ (in the presence of 1 μM phentolamine) or 5 μM norepinephrine and response to cumulative addition of NPS R831 (10 nM to 50 μM) determined. […] To determine that the high sensitivity component observed during norepinephrine-induced contraction is mediated by the perivascular CaR two additional studies are conducted.

[7] = system: rat tail arteries; details: cited from earlier work
[8] = system: mesenteric resistance arteries; test: Isometric force/active stress of Ca2+-depleted mesenteric resistance arteries; parameters: species or system Wistar rat
Protocol: In the course of studies designed to examine the hypothesis that the Ca^2+ force relationship of resistance arteries is altered in genetically hypertensive rats, it was discovered that physiologic concentrations of extracellular Ca^2+ affected the repeated contraction elicited by norepinephrine in Ca^2+ -free medium.
Mesenteric resistance arteries were isolated from Wistar rats; and intracellular Ca^2+ and isometric force were measured using a fura-based method and w ire myography (Bian, et aL, 1995b). Vessels were depleted of releasable Ca^2+ by repeated contraction with norepinephrine; and extracellular Ca^2+ was then cumulatively added back from 0.025-2.5 mmol/L in the presence of a n agonist. […] It was concluded that extracellular Ca^2+ limits force generation by depressing myofilament Ca^2+ sensitivity and decreasing intracellular Ca^2+ secondary to activation of a Ca^2+ -sensitive K^+ channel.

[9] = bolus injection, single SHR and single WKY
[10] = FIG. 16, 3 μM miconazole, 1 μM pentobarbital or 1 μM quinacrine, p<0.05

Molecule: 4 Cl-D-Phe^6,Leu^17 -VIP
- Result (antagonist effect on Ca2+-induced relaxation) [1]: no effect

Molecule: COc1ccccc1CN[C@H]1CCCN[C@H]1c1ccccc1 [CP99, 994]
- Result (antagonist effect on Ca2+-induced relaxation) [1]: no effect

Molecule: [Gd+3] [Gd^3+]
- activation of CaR [2]: activated

Molecule: COC(=O)[C@@H](N)CCCNC(=N)N[N+](=O)[O-] [L-NAME]
- effect on Ca2+-induced relaxation ([1]; 100 μM L-NAME): inhibited/reversed
- effect on Ca2+-induced relaxation ([1]; L-NAME pre-treatment): partially inhibited
- Result (antagonist effect on Ca2+-induced relaxation) [1]: no effect

Molecule: [La+3] [La^3+]
- activation of CaR [2]: activated

Molecule: COc1cccc([C@@H](C)NCCCc2ccccc2)c1 [NPS R467]
- effect of TEA on relaxation induced by low range of the drug ([3]; 10 mM TEA, 10's of nM drug): completely antagonized
- effect of TEA on relaxation induced by higher concentration of the drug ([3]; TEA, higher concentration): not blocked by TEA
- concentration causing a larger relaxation ([3]; biphasic relaxation, high range): 3 to 10 µM
- concentration inducing relaxation of similar extent to the Ca2+ relaxation ([3]; biphasic relaxation, low range): 50 to 300 nM
- concentration activating the perivascular Ca2+ receptor and inducing relaxation ([3]; interpretation consistent with data): 30 to 300 nM
- time for development of blood pressure lowering effect ([4]; bolus, both strains): 30 to 40 min
- blood pressure lowering effect ([4]; bolus, conscious rats, both strains): modest and slowly developing
- concentration of non-selective channel effects [5]: ≥ 4 µM

Molecule: COc1cccc([C@@H](C)NCCCc2ccccc2OC)c1 [NPS R831]
- potency in relaxing precontracted arteries vs activating the parathyroid CaR ([3]; compared with parathyroid CaR system): relaxes precontracted arteries with the same potency as it activates the parathyroid CaR system
- concentration of possibly perivascular CaR mediated component ([3]; norepinephrine-induced contraction): sub-micromolar concentrations
- shift of relaxation response during K+- vs norepinephrine-induced contraction ([6]; 100 mM K+ (1 μM phentolamine) vs 5 μM norepinephrine, NPS R831 10 nM to 50 μM): significantly shifted to the right (less sensitive)
- concentration of Ca2+ channel blocking mechanism of action ([6]; K+ vs norepinephrine contraction): mid-μM concentrations
- IC50 ([6]; mesenteric arteries precontracted with 100 mM K+, read-out: IC50 for block of Ca2+ channels): ~1500 nM
- blood pressure lowering effect [4, 9]: moderately rapid (within 5 min) blood pressure lowering effect in both strains
- onset of blood pressure lowering effect [4, 9]: ≤ 5 min

Molecule: CC(=O)NC1(c2ccccc2)CCN(CC[C@H](CN(C)C(=O)c2ccccc2)c2ccc(Cl)c(Cl)c2)CC1 [SR48968]
- Result (antagonist effect on Ca2+-induced relaxation) [1]: no effect

Molecule: CC(=O)N(C)C1(c2ccccc2)CCN(CCC[C@]2(c3ccc(Cl)c(Cl)c3)CCCN(C(=O)c3ccccc3)C2)CC1 [SR 142801]
- Result (antagonist effect on Ca2+-induced relaxation) [1]: no effect

Molecule: CC(C)Oc1cccc(CC(=O)N2CCC[C@](CC[N+]34CCC(c5ccccc5)(CC3)CC4)(c3ccc(Cl)c(Cl)c3)C2)c1 [SRI40333]
- Result (antagonist effect on Ca2+-induced relaxation) [1]: no effect

Molecule: CC[N+](CC)(CC)CC [TEA]
- effect on Ca2+-induced relaxation [1]: completely inhibited; also recorded: antagonized

Molecule: CSCC[C@H](NC(=O)[C@H](CC(C)C)NC(=O)CNC(=O)[C@H](Cc1ccccc1)NC(=O)[C@H](Cc1ccccc1)NC(=O)[C@H](CCC(N)=O)NC(=O)[C@H](CCC(N)=O)NC(=O)[C@@H]1CCCN1C(=O)CNC(=O)[C@H](CC(C)C)NC(=O)[C@H](CC(C)C)NC(=O)[C@H](Cc1ccc(O)cc1)NC(=O)CNC(=O)[C@H](C)NC(=O)[C@H](CO)NC(=O)[C@H](CC(N)=O)NC(=O)[C@H](CC(C)C)NC(=O)[C@@H](NC(=O)[C@H](Cc1c[nH]c2ccccc12)NC(=O)CN)[C@@H](C)O)C(N)=O [galantide]
- Result (antagonist effect on Ca2+-induced relaxation) [1]: no effect

Molecule: COc1ccc2c(c1)c(CC(=O)O)c(C)n2C(=O)c1ccc(Cl)cc1 [indomethacin]
- Result (antagonist effect on Ca2+-induced relaxation) ([1]; at 1.5 mM Ca2+): partial effect

Molecule: Clc1ccc(COC(Cn2ccnc2)c2ccc(Cl)cc2Cl)c(Cl)c1 (centres unmarked) [miconazole]
- effect on Ca2+-induced relaxation ([1]; 5 mM Ca2+): significantly attenuated
- effect on Ca2+-induced relaxation ([1]; Ca2+ 1.5-3 mM): completely antagonized
- effect on Ca2+-induced relaxation [1, 10]: significantly attenuated

Molecule: Oc1ccc2c3c1O[C@H]1c4[nH]c5c(c4C[C@@]4(O)[C@@H](C2)N(CC2CC2)CC[C@]314)C[C@@]1(O)[C@H]2Cc3ccc(O)c4c3[C@@]1(CCN2CC1CC1)[C@H]5O4 [nor-binaltorphmine]
- Result (antagonist effect on Ca2+-induced relaxation) [1]: no effect

Molecule: C[C@@H]1O[C@@H](O[C@H]2C[C@@H](O)[C@]3(CO)[C@H]4[C@H](O)C[C@]5(C)[C@@H](C6=CC(=O)OC6)CC[C@]5(O)[C@@H]4CC[C@]3(O)C2)[C@H](O)[C@H](O)[C@H]1O [ouabain]
- effect of pre-treatment on Ca2+-induced relaxation of rat tail arteries [7]: antagonized

Molecule: CCCC(C)C1(CC)C(=O)NC(=O)NC1=O (centres unmarked) [pentobarbital]
- effect on Ca2+-induced relaxation [1]: significantly attenuated
- effect on Ca2+-induced relaxation ([1]; 5 mM Ca2+): significantly attenuated
- effect on Ca2+-induced relaxation ([1]; Ca2+ 1.5-3 mM): completely antagonized

Molecule: Oc1ccccc1 [phenol]
- effect on Ca2+-induced relaxation [1]: completely blocks and often reverses; also recorded: significantly inhibited; also recorded: completely inhibits

Molecule: CCN(CC)CCCC(C)Nc1c2ccc(Cl)cc2nc2ccc(OC)cc12 (centres unmarked) [quinacrine]
- effect on Ca2+-induced relaxation [1, 10]: significantly attenuated
- effect on Ca2+-induced relaxation ([1]; PLA2 blockade): significantly attenuates

Molecule: NCCCNCCCCNCCCN [spermine]
- activation of CaR [2]: activated

Molecule: CN1[C@@H]2CC[C@H]1C[C@@H](O)C2 [tropine]
- Result (antagonist effect on Ca2+-induced relaxation) [1]: no effect

Molecule: CGRP (8-37): CGRP antagonist (VTHRLAGLLSRSGGVVKNNFVPTNVGSKAF; ends and bridges not checked; UniProt P06881 90-119, looked up, fragment)
- Result (antagonist effect on Ca2+-induced relaxation) [1]: no effect

Molecule: charybdotoxin
- effect on Ca2+-induced relaxation ([1]; prior results, K / KCa channel blockade): antagonized
- effect on decrease in active stress induced by 1.6 and 2.5 mmol/L extracellular Ca2+ [8]: inhibited

Molecule: neomycin
- activation of CaR [2]: activated

Molecule: spantide II
- Result (antagonist effect on Ca2+-induced relaxation) [1]: no effect

Molecule: tin protoporphorin IX
- Result (antagonist effect on Ca2+-induced relaxation) [1]: no effect

Source: patent publication US6184254A, “Methods of identifying modulators of perivascular sensory nerve Ca2+ receptors” (priority 1998, dated 2001)
